This note sets out measurements from PubChem BioAssay AID1417 (Emory University Molecular Libraries Screening Center, 2008).

Sequence of Induced myeloid leukemia cell differentiation protein Mcl-1 (Homo sapiens) (Q07820 whole entry, looked up): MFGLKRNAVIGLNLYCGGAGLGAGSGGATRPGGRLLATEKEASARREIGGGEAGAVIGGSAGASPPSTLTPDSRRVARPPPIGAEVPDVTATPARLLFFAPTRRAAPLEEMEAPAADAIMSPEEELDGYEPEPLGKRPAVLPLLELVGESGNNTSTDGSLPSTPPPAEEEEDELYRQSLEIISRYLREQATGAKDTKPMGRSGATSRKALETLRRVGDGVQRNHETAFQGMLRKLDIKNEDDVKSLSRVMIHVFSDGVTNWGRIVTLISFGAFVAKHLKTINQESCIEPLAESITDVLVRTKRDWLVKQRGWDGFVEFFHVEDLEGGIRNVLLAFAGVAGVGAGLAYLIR

The test concerns the target Induced myeloid leukemia cell differentiation protein Mcl-1 (Homo sapiens) (UniProt Q07820). In words: Mcl-1/Noxa binding inhibitor potency, dose response, biochemical, TR-FRET (AID 1417). The settings on record: Mcl-1/Noxa peptide interaction, cell-free TR-FRET (terbium/rhodamine), 2 h; measured here: absolute IC50.
What is called IC50 is the concentration needed to halve the response being measured. A higher IC50 goes with a need for much substance. `Cc1ccc(N2CC(C(=O)Nc3ccc(N(C)C)cc3)CC2=O)cc1C` (centres undefined) displayed a half-inhibitory concentration (IC50) above 54000 nM.
The same measure for `C/C(=N\NC(=O)c1cccc(N/N=C(\C)c2ccco2)c1)c1ccco1`: 2880 nM; for `O=C1N=c2ccc(Br)cc2=C1c1sc(=S)n(NS(=O)(=O)c2ccccc2)c1O`: above 54000 nM.
`Cc1cccc(NC(=O)c2cccs2)n1` yielded a 50% inhibitory concentration (IC50) above 54000 nM.
The same measure for `Cc1[nH]c2ccccc2c1/C=C/c1nc2ccccc2c(=O)[nH]1`: 6260 nM; for `O=C(COC(=O)c1ccc2c(c1)C(=O)N(Cc1ccncc1)C2=O)Nc1ccccc1[N+](=O)[O-]`: 2530 nM.
As for `COc1ccc(/C=N/NC(=O)c2ccc(O)cc2O)cc1CSc1ccccn1`, the IC50 was 2480 nM.
Under `Cc1cc(=O)n2[nH]c(-c3ccsc3-n3c(C)ccc3C)cc2n1` stands 2890 nM; under `Cc1ccc(C(=O)Nc2ccc(N3CCCC3)cc2)c(C)c1`, above 54000 nM.
The same measure for `Cc1ccc2c(c1)c1ccc3c(c1n2C)C(=O)C=CC3=O`: below 400 nM.
The compound `CNC(=S)Nc1sc2c(c1C(=O)OC)CCC2` came in with an IC50 of 1320 nM.
Under `CN1CCN(c2ccc([N+](=O)[O-])cc2/C=N/NC(=O)c2ccc(F)cc2)CC1` stands 4750 nM; under `COc1cccc(/C=N/Nc2ncnc3c2[nH]c2ccc(C)cc23)c1OC`, 4210 nM.
Under `COc1cccc2c(=S)c(CCC(C)=O)c(C)[nH]c12` stands 718 nM; under `Cc1ccc(C(C)C)c(OCc2ccc(C(=O)N/N=C/c3ccc(O)cc3O)cc2)c1`, 13300 nM.
Under `Nc1c(C(=O)NCC2CCCO2)sc2nc3c(c(-c4ccco4)c12)CC/C3=C\c1ccco1` (centres undefined) stands 800 nM; under `Nc1cc(C(=O)O)c(N)c2c1C(=O)c1ccccc1C2=O`, below 400 nM; under `CCOC(=O)c1sc2nc3c(SCCC(=O)O)cc(C(=O)c4cc(OC)ccc4O)cn3c(=O)c2c1C`, 955 nM.
Turning to `COc1cc(/C=N/Nc2nnc3c(n2)[nH]c2ccccc23)ccc1O`, the half-maximal inhibitory concentration (IC50) is 5830 nM.
The compound `O=C1Nc2ccc(Br)cc2/C1=C/C(=O)c1ccc2c(c1)OCO2` showed an IC50 of 1380 nM.
Under `Cc1cccc(OCCCC(=O)Nc2ccc(N(C)C)cc2)c1` stands 1800 nM; under `CCN(c1ccc(NC(=O)COC(=O)/C=C/c2cccs2)cc1)C(C)C`, 3810 nM; under `CC1CCc2c(sc(Nc3nc4c(F)cccc4s3)c2C(N)=O)C1` (centres undefined), below 400 nM.
`COc1cc(/C=C2/C(=O)c3cccc([N+](=O)[O-])c3C2=O)c(Br)cc1O` yielded an IC50 below 400 nM.
Regarding `O=C(NCc1ccco1)c1c2c(nc3ccccc13)CCC2`, the IC50 was found to be 3960 nM. In other words, the single-digit micromolar range.
The same measure for `COc1ccc(/C=C2/C(=O)N(c3nc4ccccc4s3)N=C2CSc2ccc(Cl)cc2)cc1`: below 400 nM; for `O=c1c2ccccc2sn1-c1cc(S(=O)(=O)N2CCOCC2)ccc1N1CCOCC1`: below 400 nM.
Under `COc1cc(/C=N/Nc2nc(C)nc3c2cnn3-c2ccccc2)ccc1O` stands 13300 nM.
Under `CCOc1ccc(C(=O)Nc2cc(NC(=O)c3ccc(OCC)c(Cl)c3)cc(C(=O)O)c2)cc1Cl` stands 16500 nM; under `COc1ccc(Cc2nnc(NC(=O)Cc3cccs3)s2)cc1OC`, 1050 nM.
`CC(C)c1nc2sc3c(=O)[nH]c(=S)[nH]c3c2c2c1CCC2` gave an IC50 of 7390 nM.
As to `CC1(c2ccccc2)CC(C)(C)N2C(=O)/C(=C3\SC(=S)NC3=O)c3cccc1c32` (centres undefined), the IC50 was below 400 nM.
Under `CC(/C=C/c1ccco1)=N/NC(=O)Cc1cccs1` stands 4320 nM; under `Cc1cc(C)c(S(=O)(=O)Nc2cc(SCC(=O)O)c(O)c3ccccc23)cc1C`, below 400 nM; under `O=C(N/N=C/c1ccc(O)c(O)c1)c1ccc(CSc2cccc3cccnc23)cc1`, 3090 nM.
Under `CC1=C(C(=O)OCC(C)C)C(c2ccsc2)NC(=O)N1` (centres undefined) stands above 54000 nM.
In the case of `Cc1[nH]c2ccccc2c1/C=N/Nc1ccc([N+](=O)[O-])cc1`, the 50% inhibitory concentration (IC50) worked out at 760 nM.
The same measure for `COc1cc(/C=C2\SC(=S)NC2=O)ccc1OS(=O)(=O)c1ccccc1`: 1970 nM; for `O=C(O)CCCCCN1C(=O)/C(=C\c2cn(-c3ccccc3)nc2-c2cccs2)SC1=S`: 2500 nM.
`O=C(Nc1ccc(N2CCCC2)cc1)c1ccccc1F` showed an IC50 of 6900 nM. Against the preceding compound, the IC50 is about 2.8-fold higher.
Under `CC1=NN(c2cccc(C(=O)O)c2)C(=O)/C1=C\C=C\c1ccco1` stands 4500 nM; under `Cc1cccc(C(=O)N=c2c(C#N)cc3c(=O)n4cccc(C)c4nc3n2Cc2ccco2)c1`, 4260 nM; under `CN(C)c1ccc(NC(=O)CCCc2ccccc2)cc1`, above 54000 nM.
The same measure for `CC1C(=O)NN=C1C(=O)N/N=C\c1ccc(O)cc1O` (centres undefined): below 400 nM; for `O=[N+]([O-])c1cc(S(=O)(=O)c2ccc(O)c([N+](=O)[O-])c2)ccc1O`: 846 nM.
`O=[N+]([O-])c1ccc(-c2cn(-c3ccc(Cl)cc3)c(=S)[nH]2)cc1`: the concentration for half-maximal inhibition (IC50) was found to be 7170 nM.
Take `CNc1ccc(Br)cc(C(=O)/C=C/c2ccc(OC)cc2OC)c1=O`: the IC50 worked out at 3530 nM.
Under `CNc1sc(C(=O)c2ccc(F)cc2)c(N)c1-c1nc2ccccc2s1` stands 2090 nM; under `COC(=O)c1cc(O)cc(OC)c1Oc1cc(C)cc(O)c1C(=O)O`, above 54000 nM.
`Oc1ccc(/C=N/NC(=S)Nc2cccnc2)c(O)c1O` showed a 50% inhibitory concentration (IC50) below 400 nM.
With `COC/C=C/C1=CC2=CC(=O)C(C)(OC(=O)c3ccco3)C(=O)C2=CO1` (centres undefined), the concentration for half-maximal inhibition (IC50) worked out at 2780 nM.
Consider `CC(C)Cn1c(N)c(C(=O)COC(=O)c2cc(-c3ccco3)nc3ccccc23)c(=O)n(C)c1=O`, for which the IC50 was found to be 1450 nM.
The same measure for `Oc1ccc(-c2csc(Nc3ncccn3)n2)cc1O`: below 400 nM; for `COc1cc(C(=O)Nc2ccc3c(c2)C(=O)c2ccccc2C3=O)cc(OC)c1OC`: 3970 nM; for `COCCn1nnnc1C(c1ccc(O)c(OC)c1)N1CCc2ccccc2C1` (centres undefined): below 400 nM.
The same measure for `N#Cc1cc(-c2ccccc2)nn1-c1ccccc1`: below 400 nM; for `CC(C)(C)c1cc(-c2csc(Nc3ccccc3)[n+]2Cc2ccc(C(=O)O)cc2)cc(C(C)(C)C)c1O`: 1320 nM.
In turn, `O=C(O)c1ccccc1N/N=C/c1c(Sc2nnnn2-c2ccccc2)nc2ccccn2c1=O` registered a half-maximal inhibitory concentration (IC50) below 400 nM.
The same measure for `COc1ccc2[nH]c3c(C)c4ccncc4c(C)c3c2c1`: below 400 nM.
Compound `CC(=O)Nc1ccc(C2=NNC(=Nc3cccc(S(=O)(=O)N(C)C)c3)SC2)cc1` yielded an IC50 of 3030 nM.
The same measure for `COc1cc(/C=C2\SC(=O)N(Cc3ccc(Cl)cc3)C2=O)cc([N+](=O)[O-])c1O`: 7110 nM; for `O=C1C(Cl)=C(N2CCCCC2)C(=O)C(Cl)=C1c1cnc(N2CCCCC2)s1`: below 400 nM; for `Cc1[nH]n(-c2ncc(-c3ccccc3)s2)c(=O)c1C(c1ccc(Br)cc1)C(C#N)C#N` (centres undefined): 6540 nM.
Under `COc1ccccc1CNC(=O)COC(=O)c1cc(-c2ccco2)nc2ccccc12` stands 1800 nM; under `O=C(NN1C(=O)/C(=C/C=C/c2ccco2)SC1=S)c1ccncc1`, 2230 nM; under `Cc1ccc(N2C(=O)NC(=O)/C(=C/c3cnc(-c4ccccc4)nc3)C2=O)cc1C`, 16300 nM.
The same measure for `COc1ccc(C(=O)c2sc3nc(-c4ccc(OC)cc4)ccc3c2N)cc1`: above 54000 nM; for `Nc1ccc(N)c(C(=O)O)c1`: 1310 nM.
Compound `CCc1nc(Nc2ccc(N3CCN(C(C)=O)CC3)cc2)c2oc3ccccc3c2n1` registered an IC50 above 54000 nM.
